Measured values from paper PMC5861220, “The Cytochrome P450-Mediated Metabolism Alternation of Four Effective Lignans From Schisandra chinensis in Carbon Tetrachloride-Intoxicated Rats and Patients With Advanced Hepatocellular Carcinoma” (Frontiers in Pharmacology, 2018).
Read-outs that look alike come from different tables or passages of the source.

Key:
[1] = Transport across Caco-2 cell monolayer; format: in vitro ADME; details: human, 5 μM
Experimental: (§1) Caco-2 cell (passage 38) was used in the transport experiments. Cells were seeded on polycarbonate filters (12 mm diameter, pore size […]) at 1 × 10^5/cm^2. The cell monolayer was formed 21 days post seeding when the transepithelial electrical resistance (TEER) was above 1,000 Ω• cm^2. Three concentration levels (5, 10, and 50 μM) were set for the four schisandra lignans in the study. After preincubation for 1 h at 37°C, the solution of the four lignans was respectively added to the apical (0.4 mL) or basolateral (0.6 mL) chamber for absorptive (AP → BL) and secretive (BL → AP) permeability test. At the specified timepoints (0.5, 1, 1.5 and 2 h), 50 μL samples (n = 3) were withdrawn from receiver chamber, and meanwhile, 50 μL fresh buffer was added. The four lignans were determined by HPLC-MS method.
(§2) The efflux rate (ER) was calculated by the formula ER = Papp (BL → AP)/Papp(AP → BL).

[2] = tested on: acute liver injury (ALI) rats; experiment: Biochemical indexes of liver and renal functions in CCl4-intoxicated (ALI) rats; format: in vivo, rat
Experimental: Male Sprague-Dawley rats, weighing 180–220 g, were obtained from Beijing Vital River Experimental Animal Co., Ltd. The animals were quarantined for 1 week prior to study and maintained on a 12-h light/12-h dark cycle at 22 ± 1°C and at 50–55% relative humidity with free access to solid pellet diet and water ad libitum throughout the study. All rats were assigned randomly to three groups, including acute liver injury (ALI) rat, SC-treated ALI rat and the control, 5 in each group. The ALI and SC-treated ALI rats were intraperitoneal injected two doses of the mixture of CCl4 and olive oil (1:1, V/V) at 2 mL/kg in a 24 h time interval (Huang et al., [2001]), while the control group was given the same volume of olive oil. Then, the SC-treated ALI rat was orally dosed with SC alcoholic extract suspended in 0.5% sodium carboxymethyl cellulose (CMC) at 1.5 g/kg/day for 4 days after CCl4 injection. The dosages were set according to the amounts of the four active lignans used previously for pharmacological studies and their contents in the extract (Chiu et al., [2002], [2007]; Cheng et al., [2013]). All animal protocols were approved by the Animal Care and Welfare Committee of the Academy of Military Medical Sciences. All animal procedures complied with the Guide for the Care and Use of Laboratory Animals issued by Beijing Association on Laboratory Animal Care (BALAC).
Serum aspartate transaminase (AST), alanine transaminase (ALT), alkaline phosphatase (ALP), lactate dehydrogenase (LDH), total bilirubin, blood urea nitrogen (BUN), and creatinine (CRE) levels were determined with commercial kits (Nanjing Jiancheng Bioengineering Institute, China).

rat liver = experiment: In situ hepatic perfusion of four lignans; format: in vivo; details: 10 μM, n = 3; for Total amount of analyte in bile / Total amount of analyte in liver: hepatic perfusion 60 min; for AUC: perfusate AUC(0−1h)
Experimental: In situ liver perfusion was performed similarly as the method described previously (Uraki et al., [2016]). […] The perfusate consisted of Krebs–Hensleit buffer (pH 7.4) containing sodium taurocholate (4.75 mg/L), 1% bovine serum albumin, and glucose (1.2 g/L) was oxygenated using carbogen, 95% O2/5% CO2. The perfusate at 37°C was infused into the portal vein at a flow rate of 30 mL/min in a recirculatory manner. After 10-min equilibration, four schisandra lignans were added to the reservoir (final concentration of 10 μM). Perfusate (0.5 mL) and bile samples were collected at 0, 10, 20, 30, 40, 50, and 60 min after the addition of lignans. The same volume of blank perfusion buffer was immediately added to the reservoir after collection of the perfusate samples. After hepatic perfusion, rat was sacrificed and liver was removed, blotted dry, and weighed.

Caco-2 cell monolayer = experiment: Transport across Caco-2 cell monolayer; format: in vitro ADME; details: for ER: ER = Papp (BL → AP)/Papp(AP → BL)
Experimental: as §1, §2

[3] = Pharmacokinetics of four lignans in rats after oral SC alcoholic extract; format: in vivo, rat
Experimental: The pharmacokinetic profiles of four lignans were studied in ALI rat after multiple oral administrations of SC alcoholic extract at dose of 1.5 g/kg/day. After the ALI rat was established, SC alcoholic extract suspended in 0.5% sodium carboxymethyl cellulose was given to ALI rats and the control via oral gavage once a day for 4 consecutive days. Before the last dosing, rats were fasted for 12 h while water was taken freely. Blood samples were collected at 0, 0.25, 0.5, 1, 2, 3, 4, 6, 8, 12, 24, 36, and 48 h after the last dosing. A cannula was surgically placed into the jugular vein for collection of blood samples (about 0.1 mL) and blood loss compensation using sterile isotonic saline in the pharmacokinetic study. Plasma was separated by centrifugation and stored at −20°C until analysis. Plasma concentrations of the four lignans were quantified using HPLC-MS analysis developed according to the reported method (Wang et al., [2008]).
Data fitting and pharmacokinetic parameter calculations were carried out using the Winnolin software. Non-compartmental analysis was used to calculate the pharmacokinetic parameters. Parameters, such as AUC and MRT, were calculated using statistical moment method.

[4] = tested on: rat intestine (jejunum segment); experiment: In situ intestinal perfusion of four lignans; format: in vivo; details: for Perfusate (Percent of the initial dose) / Plasma (Percent of the initial dose) / Intestine (Percent of the initial dose) / Pblood / Plumen: 50 μM, n = 3; for Perfusate (Percent of the initial dose): intestinal perfusion 60 min; for Plasma (Percent of the initial dose) / Intestine (Percent of the initial dose): intestinal perfusion; for Plasma (Percent of the initial dose): mesenteric vein blood
Experimental: The surgical procedures of intestinal perfusion were conducted according to those published reports (Savina et al., [1981]). Hank's balanced salt solution (HBSS, pH 7.4) with four schisandra lignans (50 μM) at 37°C was infused into the jejunum segment at rate of 0.3 mL/min. Phenol Red (50 μM) was added to serve as a nonabsorbable marker for measuring water flux. Blood samples from mesenteric vein and perfusate were collected at 5-min interval. The plasma separated by centrifugation and perfusate was stored at −20°C until HPLC-MS analysis.
The permeability of four lignans across the rat intestine was calculated based on the disappearance of parent drug from the lumen (Plumen) as well as the appearance of the drug in blood (Pblood) using the following equations (Singhal et al., [1998]):
(1) Plumen = −Q/2πrlLnCout/Cin
(1) Pblood = ΔMB/Δt/2πrl{C}
where r is the radius of the perfused intestinal lumen; l is the length of the segment; Q is the flow rate of perfusate; Cin is the concentration of drug at the start of perfusion; and Cout is the steady-state concentration of drug exiting the lumen. ΔMB/Δt is the rate of drug appearance in mesenteric blood; and {C} is the logarithmic mean concentration of drug in the lumen.

[5] = Caco-2, ER = Papp (BL → AP)/Papp(AP → BL)
[6] = ALI rat intoxicated with CCl4 vs control rats
[7] = CCl4-intoxicated rats vs control
[8] = CCl4-intoxicated rats, oral SC alcoholic extract 1.5 g/kg/day for 4 days, plasma, n = 5
[9] = Control (normal) rats, oral SC alcoholic extract 1.5 g/kg/day for 4 days, plasma, n = 5
[10] = Caco-2, with PSC833 (concentration not stated), + PSC833

CC(C)NCC(O)COc1cccc2ccccc12 (stereo not drawn) [Propranolol, propranolol, reference compound]
Papp A→B at 2 h, 5 μM ([1]; Caco-2): 32.9 ± 6.03 ×10⁻⁶ cm/s | Papp B→A at 2 h, 5 μM ([1]; Caco-2): 24.6 ± 1.8 ×10⁻⁶ cm/s | efflux ratio at 2 h, 5 μM [1, 5]: 0.75

ClC(Cl)(Cl)Cl [CCl4, carbon tetrachloride]
Decrease of content of liver microsomal CYP450 enzyme [2, 6]: 54% | Increase of BUN [2, 6]: 30% | Increase of liver index [2, 6]: 40% | Increase of serum ALT [2, 6]: 720% | Increase of serum AST [2, 6]: 30% | BUN ([2]; CCl4-intoxicated rats): 18.3 ± 1.2 mg/dL | CRE ([2]; CCl4-intoxicated rats): 0.8 ± 0.1 mg/dL | Serum ALT increase [2, 7]: 8.2 folds | Serum AST increase [2, 7]: 1.3 folds | Liver index ([2]; CCl4-intoxicated rats, CCl4:olive oil (1:1) 2 mL/kg i.p., two doses): 38 ± 5 g/kg | Liver P450 ([2]; CCl4-intoxicated rats, liver microsomal CYP450 content): 0.27 ± 0.12 nmol/mg | ALP ([2]; CCl4-intoxicated rats, serum): 8.15 ± 0.09 IU/L | ALT ([2]; CCl4-intoxicated rats, serum): 329 ± 49 IU/L | AST ([2]; CCl4-intoxicated rats, serum): 268 ± 49 IU/L | LDH ([2]; CCl4-intoxicated rats, serum): 605 ± 168 IU/L | TB ([2]; CCl4-intoxicated rats, total bilirubin): 0.09 ± 0.02 mg/dL

schisantherin A
Total amount of analyte in bile (rat liver; CCl4-intoxicated rats): 1.61 ± 0.34 µg | Total amount of analyte in liver (rat liver; CCl4-intoxicated rats): 17.15 ± 1.84 µg | AUC (rat liver; CCl4-intoxicated rats): 4790 ± 30 ng·h/mL | Total amount of analyte in bile (rat liver; Control rats): 1.48 ± 0.23 µg | Total amount of analyte in liver (rat liver; Control rats): 12.36 ± 1.65 µg | AUC (rat liver; Control rats): 4080 ± 140 ng·h/mL | Papp(AP−BL) (Caco-2 cell monolayer; 5 μM): 1.33 ± 0.12 × 10^−6 cm/s | Papp(BL−AP) (Caco-2 cell monolayer; 5 μM): 1.52 ± 0.26 × 10^−6 cm/s | ER (Caco-2 cell monolayer; 5 μM): 1.14 | Papp(AP−BL) (Caco-2 cell monolayer; 10 μM): 1.81 ± 0.35 × 10^−6 cm/s | Papp(BL−AP) (Caco-2 cell monolayer; 10 μM): 2.28 ± 0.47 × 10^−6 cm/s | ER (Caco-2 cell monolayer; 10 μM): 1.26 | Papp(AP−BL) (Caco-2 cell monolayer; 50 μM): 1.43 ± 0.35 × 10^−6 cm/s | Papp(BL−AP) (Caco-2 cell monolayer; 50 μM): 1.28 ± 0.24 × 10^−6 cm/s | ER (Caco-2 cell monolayer; 50 μM): 0.89 | AUC(0−t) [3, 8]: 99600 ± 45600 ng·h/mL | CLz/F [3, 8]: 234.05 ± 115.74 L/h/kg | Cmax [3, 8]: 3190 ± 1160 ng/mL | MRT(0−t) [3, 8]: 19.84 ± 1.18 h | Tmax [3, 8]: 9.60 ± 3.29 h | t1/2 [3, 8]: 17.65 ± 3.32 h | Reduction of systemic clearance (CLz/F) ([3]; CCl4 intoxicated rats vs control rats): ~89% | AUC(0−t) [3, 9]: 11300 ± 3870 ng·h/mL | Cmax [3, 9]: 569 ± 163 ng/mL | MRT(0−t) [3, 9]: 15.42 ± 0.29 h | Tmax [3, 9]: 5.00 ± 1.41 h | t1/2 [3, 9]: 12.39 ± 2.12 h | Perfusate (Percent of the initial dose) ([4]; CCl4-intoxicated rats): 92.85 ± 1.33% of the initial dose | Plasma (Percent of the initial dose) ([4]; CCl4-intoxicated rats): 0.82 ± 0.04% of the initial dose | Intestine (Percent of the initial dose) ([4]; CCl4-intoxicated rats): 1.95 ± 0.36% of the initial dose | Pblood ([4]; CCl4-intoxicated rats): 0.060 ± 0.016 × 10^−4 cm/s | Plumen ([4]; CCl4-intoxicated rats): 2.047 ± 0.373 × 10^−4 cm/s | Perfusate (Percent of the initial dose) ([4]; Control rats): 92.47 ± 1.06% of the initial dose | Plasma (Percent of the initial dose) ([4]; Control rats): 0.80 ± 0.07% of the initial dose | Intestine (Percent of the initial dose) ([4]; Control rats): 1.65 ± 0.37% of the initial dose | Pblood ([4]; Control rats): 0.047 ± 0.006 × 10^−4 cm/s | Plumen ([4]; Control rats): 2.303 ± 0.163 × 10^−4 cm/s | Increase of remaining amount in perfusate ([4]; intestinal autoperfusion (60 min), CCl4-treated rats vs control): not changed

C[C@H]1O[C@@H](O[C@H]2[C@@H](O)C[C@H](O[C@H]3[C@@H](O)C[C@H](O[C@H]4CC[C@@]5(C)[C@H](CC[C@@H]6[C@@H]5C[C@@H](O)[C@]5(C)[C@@H](C7=CC(=O)OC7)CC[C@]65O)C4)O[C@@H]3C)O[C@@H]2C)C[C@H](O)[C@@H]1O [Digoxin, digoxin, reference compound]
Papp A→B at 2 h, 5 μM [1, 10]: 1.46 ± 0.24 ×10⁻⁶ cm/s | Papp B→A at 2 h, 5 μM [1, 10]: 2.38 ± 0.58 ×10⁻⁶ cm/s | efflux ratio at 2 h, 5 μM ([1]; Caco-2, with PSC833 (concentration not stated), + PSC833, read-out: ER): 1.63 | Papp A→B at 2 h, 5 μM ([1]; Caco-2): 3.29 ± 4.02 ×10⁻⁶ cm/s | Papp B→A at 2 h, 5 μM ([1]; Caco-2): 11.6 ± 0.82 ×10⁻⁶ cm/s | efflux ratio at 2 h, 5 μM [1, 5]: 3.53
